This is an account of results in patent US20040147557A1, “Aryl piperidine derivatives as inducers of ldl-receptor expression” (priority 2003, published 2004).

By IC50 is commonly meant the midpoint of a concentration-inhibition curve. As usually defined, the melting point is the temperature of the solid-liquid transition.

One data set concerns LDL-r promoter. Briefly: LDL-r promoter luciferase reporter gene assay in stably transfected HepG2 cells. The class given is cell-based, human. Particulars: HepG2 cells with LDL-r promoter-luciferase construct, 24 hours incubation, RPMI medium with 2% lipoprotein-deficient serum, induction of luciferase activity, read-out: In vitro (IC50). As for the experimental part:
The ability of the compounds of the invention to induce LDL-r expression by human hepatocytes in vitro is determined using a human hepatocarcinoma cell line, Hep G2, as a model system. A reporter gene assay using the LDL-r promoter in front of the reporter gene Luciferase is used as a primary screen.
HepG2 cells, stably transfected with a construct comprising the LDL-r promoter and the luciferase reporter gene, were seeded at 50.000 cells/well in 96 well plates. After 1 day, cells were incubated with compounds for 24 hours in RPMI medium containing 2% of lipoprotein-deficient serum. Compounds were tested from 10^−6M to 10^−9M. Cell lysates were prepared and the luciferase activity was measured by the luciferase assay system (Promega). Induction of luciferase activity was calculated taking untreated cells as control and ED50 of each compounds was determinated compared to the ED50 of an internal standart.

In a further data set the test system is fat-fed hamsters. In words: Oral administration to fat-fed hamsters, reduction of VLD/LDL cholesterol and TG plasma levels. Type of data set: in vivo, hamster. Particulars: hamsters fed 0.2% cholesterol and 10% coconut oil diet, once a day for 3 days, reduction in VLD/LDL cholesterol and TG plasmatic levels. As for the experimental part:
The in vivo profile of the compounds is evaluated by oral administration of the compounds of the invention to fat-fed hamsters. Measurements of VLD/LDL cholesterol and triglycerides upon treatment allow the activity to be determined.
Compounds were prepared for oral administration by milling with 0.5% hydroxypropylmethylcellulose and 5% Tween 80. Hamsters were fed for 2 weeks with a diet containing 0.2% of cholesterol and 10% of coconut oil. Then compounds were administrated once a day for 3 days, from 20 to 0.2 mg/kg. Plasma lipid levels including total cholesterol, VLD/LDL cholesterol, VLD/LDL triglycerides and HDL-cholesterol were determinated after ultracentrifugation (density 1.063 g/ml to separate VLD/LDL fraction and HDL fraction) using the Biomerieux enzymatic kit. Reductions in VLD/LDL cholesterol and TG plasmatic levels were calculated taking solvant treated animals as control and ED50 of each compound was determined.

Read-outs that look alike come from different tables or passages of the source.

Regarding `CCOc1cc(CC)ccc1C1CCN(CCCCNC(=O)c2ccc(-c3ccc(C#N)cc3)cc2)CC1` [Example 5, 4′-Cyano-biphenyl-4-carboxylic Acid {4-[4-(2-ethoxy-4-ethyl-phenyl)-piperidin-1-yl]-butyl}-amide], the melting point came out at 165 °C. The 50% inhibitory concentration (IC50) with LDL-r promoter (Homo sapiens) amounted to 10 nM. The ED50 with fat-fed hamsters (Mesocricetus auratus, 72 h, read-out: In vivo (ED50)) is 2 mg/kg.

The compound `CCc1ccc(C2CCN(CCCCNC(=O)c3ccc(-c4ccc(C#N)cc4)cc3)CC2)c(O)c1` [Example 14, 4′-Cyano-biphenyl-4-carboxylic Acid {4-[4-(2-hydroxy-4-ethyl-phenyl)-piperidin-1-yl]-butyl}-amide] showed a melting point of 252 °C.

Turning to `COc1c(C2CCN(CCCCNC(=O)c3ccc(-c4ccc(Cl)cc4)cc3)CC2)ccc2ccccc12` [Example 3, 4′-Chloro-biphenyl-4-carboxylic Acid {4-[4-(1-methoxy-naphtalen-2-yl)-piperidin-1-yl]-butyl}-amide], the IC50 with LDL-r promoter stood at 10 nM. Further, the “In vivo (ED50)” value in the data set on fat-fed hamsters was found to be 2 mg/kg.

In the case of `COc1c(C2CCN(CCCCNC(=O)c3ccc(-c4ccc(C#N)cc4)cc3)CC2)ccc2c1CCCC2` [Example 11, 4′-Cyano-biphenyl-4-carboxylic Acid {4-[4-(1-methoxy-5,6,7,8-tetrahydro-naphtalen-2-yl)-piperidin-1-yl]-butyl}-amide], the half-maximal inhibitory concentration (IC50) with LDL-r promoter turned out to be 10 nM. Besides, the “In vivo (ED50)” value with fat-fed hamsters is reported as 1 mg/kg.

With `CCc1ccc(C2CCN(CCCCNC(=O)c3ccc(-c4ccc(C(F)(F)F)cc4)cc3)CC2)c(OCC2CC2)c1` [Example 2, 4′-Trifluoromethyl-biphenyl-4-carboxylic Acid [4-[4-(2-cyclopropylmethoxy-4-ethyl-phenyl)-piperidin-1-yl]-butyl]-amide], the melting point fell in the range of 247 to 249 °C.

The compound `Cc1ccc(C2CCN(CCCCNC(=O)c3ccc(-c4ccc(C#N)cc4)cc3)CC2)c(O)c1` [Example 18, 4′-Cyano-biphenyl-4-carboxylic Acid {4-[4-(2-hydroxy-4-methyl-phenyl)-piperidin-1-yl]-butyl}-amide] came in with a melting point of 184 °C.

As to `CCOc1cc(CC)ccc1C1CCN(CCCCNC(=O)c2ccc(-c3ccc(S(C)(=O)=O)cc3)cc2)CC1` [Example 12, 4′-Methanesulfonyl-biphenyl-4-carboxylic Acid {4-[4-(2-ethoxy-4-ethyl-phenyl)-piperidin-1-yl]-butyl}-amide], the melting point is 179 to 180 °C.
